Values quoted from earlier work, collected in US6599527B1, “Preparation of pharmaceutical compositions” (Phares Pharmaceutical Research N.V., priority 1997, dated 2003).

Details: in vivo

phosphatidylcholine [phosphatidylcholine (PC)]
fraction entering the GI tract that is absorbed: Over 90%
